Measurements published in publication PMC6269853, “Synthesis and Biological Evaluation of Unsymmetrical Curcumin Analogues as Tyrosinase Inhibitors” (Molecules, 2013).

Tests used:
mushroom tyrosinase [1] = experiment: Diphenolase inhibitory activity of mushroom tyrosinase (L-DOPA oxidation, spectrophotometric); assay type: biochemical; conditions: for IC50: L-DOPA 0.5 mM, pH 6.8, 25 °C
Protocol: UCAs 3a–k, 4a–i were subjected to tyrosinase inhibitory assays by measuring the oxidation of L-DOPA according to the literature protocol.
The spectrophotometric assay for tyrosinase was performed according to the reported method with slight modifications. Briefly, all the synthesized compounds were screened for the diphenolase inhibitory activity of tyrosinase using L-DOPA as the substrate. All compounds were dissolved in DMSO. The final concentration of the test solution was 2.0%. Phosphate buffer (pH = 6.8) was used to dilute the DMSO stock solution of test compounds. Thirty units of mushroom tyrosinase (0.5 mg/mL) were firstly pre-incubated with these compounds in 50 mM phosphate buffer (pH = 6.8) at 25 °C for 10 min. L-DOPA (0.5 mM) was then added to the reaction mixture and the enzyme reaction was monitored by measuring the change in absorbance at 475 nm of the formation of L-DOPA chrome for 1 min. The measurement was performed for three times for each concentration and averaged before further calculations. IC50 values were determined by the interpolation of the dose–response curves.

mushroom tyrosinase [2] = experiment: Inhibition kinetics by Lineweaver-Burk plots; assay type: biochemical; conditions: oxidation of L-DOPA
Protocol: The inhibitory mechanism of selected compounds 3c, 3d, 3i and 3j against mushroom tyrosinase during the oxidation of L-DOPA was determined by the same methods. […] However, 3d and 3j containing m-dihydroxyl groups on ring B were competitive inhibitors because the intersection of those straight lines was on the Y-axis.
Concentrations of 3c, 3d, 3i and 3j for curves 1–3 were 0.0 μM, 4.06 μM, 12.18 μM; 0.0 μM, 4.06 μM, 16.23 μM; 0.0 μM, 14.8 μM, 59.2 μM; 0.0 μM, 3.70 μM, 11.09 μM, respectively.
Pre-incubation and measurement time was the same as the procedure in section 3.3. Maximal initial velocity was determined from initial linear portion of absorbance between 0 and 60 s after addition of mushroom tyrosinase. The inhibition type on the enzyme was assayed by Lineweaver–Burk plots, and the inhibition constant was determined by the second plots of the apparent Km/Vm or 1/Vm versus the concentration of compound. The same procedure was executed for other compounds.

CD-1 mice = experiment: Acute oral toxicity in mice (OECD 423); assay type: in vivo; conditions: for Body Weight: last day; for Drinking Water / Food Intake: measured daily and averaged; for autopsy, changes in organs: mice, 1,200 mg/kg, end of experimental period (14 days)
Protocol: 3d and 3j were used as the representative compounds to evaluate the toxicity in mice.
The acute toxicity of compound 3d was examined according to the OECD 423 Guideline for Testing of Chemicals Acute Oral Toxicity – Acute Toxic Class Method procedures. The test procedure was applied with an initial dose at 1,200 mg/kg. Male and female CD-1 mice (six males and six females; 7~8 weeks old) were obtained from Center of Animal Test of the Sun Yat-sen University, housed in the University-approved animal facility in rooms maintained at 22 ± 2 °C with 55%–60% humidity and 12 h photoperiod. After five-day adaptation to laboratory conditions, mice were divided into four equal groups (controls: male, female, and treated: male and female, three animals in each group, equal body mass) and given by gavage either a single dosage of 1,200 mg 3d (dispersed in 3% Tween 80 aqueous solution)/kg, and equal volumes of distilled water containing 3% Tween 80 for control groups, using a suitably graduated syringe and a stainless steel intubation cannula. Mice had free access to distilled water and commercial standard diet. Animals were observed individually after dosing at least once during the first 30 min, periodically during the first 24 h, with special attention given during the first 4 h, and daily thereafter, for a total of 14 days. All observations were systematically recorded with individual records being maintained for each animal. Individual body weight of animals was determined shortly before the test substance was administered and weekly thereafter. All the animals were sacrificed at the end of the observation period and subjected to a necropsy. The same procedure was performed for compound 3j.

## 1-(3,4-Dihydroxyphenyl)-5-(4-hydroxy-3-methoxyphenyl)penta-1,4-dien-3-one [Compound 4g]
Mushroom tyrosinase [1]
  IC50: > 200 µM

## 1-(3,4-Dihydroxyphenyl)-5-(4-methoxyphenyl)penta-1,4-dien-3-one [Compound 4i]
Mushroom tyrosinase [1]
  IC50: > 200 µM

## 1-(4-Hydroxy-3,5-dimethoxyphenyl)-5-(4-hydroxy-3-methoxyphenyl)penta-1,4-dien-3-one [Compound 4h]
Mushroom tyrosinase [1]
  IC50: < 100 µM
Mushroom tyrosinase [1]; decrease relative to 4c (IC50 = 4.64 μM)
  fold difference in activity versus 4c: > 16 fold

## CCCCc1ccc(O)cc1O [4-Butylresorcinol, reference compound]
Mushroom tyrosinase [1]
  IC50: 11.3 µM

## COc1ccc(C=C2CCC(=Cc3ccc(O)cc3)C2=O)cc1 [Compound 3a, 2-(4-Hydroxybenzylidene)-5-(4-methoxybenzylidene)cyclopentanone]
other
  melting point: 241 to 243 °C
Mushroom tyrosinase [1]
  IC50: 189 µM

## COc1cc(C=C2CCC(=Cc3ccc(O)cc3)C2=O)ccc1O [Compound 3b, 2-(4-Hydroxy-3-methoxybenzylidene)-5-(4-hydroxybenzylidene)cyclopentanone]
other
  melting point: 278 to 280 °C
Mushroom tyrosinase [1]
  IC50: 56.6 µM
Mushroom tyrosinase [1]; decrease relative to 3c
  fold difference in activity versus 3c: > 8 fold

## O=C1C(=Cc2ccc(O)cc2)CCC1=Cc1ccc(O)c(O)c1 [Compound 3c, 2-(3,4-Dihydroxybenzylidene)-5-(4-hydroxybenzylidene)cyclopentanone]
Mushroom tyrosinase [2]
  inhibition type: mixed-competitive
other
  melting point: > 300 °C
Mushroom tyrosinase [1]
  IC50: 7.78 µM

## O=C1C(=Cc2ccc(O)cc2)CCC1=Cc1ccc(O)cc1O [Compound 3d, 2-(2,4-Dihydroxybenzylidene)-5-(4-hydroxybenzylidene)cyclopentanone]
Mushroom tyrosinase [2]
  inhibition type: competitive
CD-1 mice; female CD-1 mice, 1,200 mg/kg
  Body Weight: 27.3 ± 2.9 g
  Drinking Water: 4.2 ± 0.5 mL/day
  Food Intake: 4.0 ± 0.4 g/day
CD-1 mice; male CD-1 mice, 1,200 mg/kg
  Body Weight: 30.9 ± 2.6 g
  Drinking Water: 5.6 ± 0.6 mL/day
  Food Intake: 5.1 ± 0.5 g/day
CD-1 mice
  autopsy, changes in organs: no apparent changes
Mushroom tyrosinase [1]
  fold lower IC50 than kojic acid: about 16 fold
  IC50: 1.74 µM
Mushroom tyrosinase [1]; diphenolase activity, L-DOPA, 25 °C, Figure 1
  course of enzyme activity inhibition: concentration-dependent
Mushroom tyrosinase [1]; vs 4-butylresorcinol (11.27 μM)
  fold lower IC50 than 4-butylresorcinol: ~6 fold

## COc1cc(C=C2CCC(=Cc3ccc(O)cc3)C2=O)cc(OC)c1O [Compound 3e, 2-(4-Hydroxy-3,5-dimethoxybenzylidene)-5-(4-hydroxybenzylidene)cyclopentanone]
other
  melting point: 259 to 261 °C
Mushroom tyrosinase [1]
  IC50: 9.66 µM

## CC(C)(C)c1cc(C=C2CCC(=Cc3ccc(O)cc3)C2=O)cc(C(C)(C)C)c1O [Compound 3f, 2-(3,5-Di-tert-butyl-4-hydroxybenzylidene)-5-(4-hydroxybenzylidene)cyclopentanone]
other
  melting point: 233 to 235 °C
Mushroom tyrosinase [1]
  IC50: 168 µM

## COc1cc(C=C2CCC(=Cc3ccc(O)cc3)C2=O)cc(Br)c1O [Compound 3g, 2-(3-Bromo-4-hydroxy-5-methoxybenzylidene)-5-(4-hydroxybenzylidene)cyclopentanone]
other
  melting point: 241 to 243 °C
Mushroom tyrosinase [1]
  IC50: 173 µM

## O=C1C(=Cc2ccc(O)cc2)CCC1=Cc1cc(Br)c(O)c(Br)c1 [Compound 3h, 2-(3,5-Dibromo-4-hydroxybenzylidene)-5-(4-hydroxybenzylidene)cyclopentanone]
other
  melting point: 286 to 288 °C
Mushroom tyrosinase [1]
  IC50: > 200 µM

## COc1cc(C=C2CCC(=Cc3ccc(O)c(O)c3)C2=O)ccc1O [Compound 3i, 2-(3,4-Dihydroxybenzylidene)-5-(4-hydroxy-3-methoxybenzylidene)cyclopentanone]
Mushroom tyrosinase [2]
  inhibition type: mixed-competitive
other
  melting point: > 300 °C

## COc1cc(C=C2CCC(=Cc3ccc(O)cc3O)C2=O)ccc1O [Compound 3j, 2-(2,4-Dihydroxybenzylidene)-5-(4-hydroxy-3-methoxybenzylidene)cyclopentanone]
Mushroom tyrosinase [2]
  inhibition type: competitive
CD-1 mice; female CD-1 mice, 1,200 mg/kg
  Body Weight: 26.9 ± 2.1 g
  Drinking Water: 4.1 ± 0.4 mL/day
  Food Intake: 3.9 ± 0.5 g/day
CD-1 mice; male CD-1 mice, 1,200 mg/kg
  Body Weight: 30.1 ± 2.8 g
  Drinking Water: 5.4 ± 0.5 mL/day
  Food Intake: 5.2 ± 0.4 g/day
CD-1 mice
  autopsy, changes in organs: no apparent changes

## COc1cc(C=C2CCC(=Cc3cc(OC)c(O)c(OC)c3)C2=O)ccc1O [Compound 3k, 2-(4-Hydroxy-3,5-dimethoxybenzylidene)-5-(4-hydroxy-3-methoxybenzylidene)cyclopentanone]
other
  melting point: 129 to 131 °C
Mushroom tyrosinase [1]
  IC50: > 200 µM

## COc1ccc(C=CC(=O)C=Cc2ccc(O)cc2)cc1 [Compound 4a, 1-(4-Hydroxyphenyl)-5-(4-methoxyphenyl)penta-1,4-dien-3-one]
other
  melting point: 114 to 116 °C
Mushroom tyrosinase [1]
  IC50: 183 µM

## COc1cc(C=CC(=O)C=Cc2ccc(O)cc2)ccc1O [Compound 4b, 1-(4-Hydroxy-3-methoxyphenyl)-5-(4-hydroxyphenyl)penta-1,4-dien-3-one]
other
  melting point: 98 to 101 °C
Mushroom tyrosinase [1]
  IC50: 46.2 µM

## O=C(C=Cc1ccc(O)cc1)C=Cc1ccc(O)c(O)c1 [Compound 4c, 1-(3,4-Dihydroxyphenyl)-5-(4-hydroxyphenyl)penta-1,4-dien-3-one]
other
  melting point: 181 to 183 °C
Mushroom tyrosinase [1]
  IC50: 4.64 µM

## COc1cc(C=CC(=O)C=Cc2ccc(O)cc2)cc(OC)c1O [Compound 4d, 1-(4-Hydroxy-3,5-dimethoxyphenyl)-5-(4-hydroxyphenyl)penta-1,4-dien-3-one]
other
  melting point: 93 to 95 °C
Mushroom tyrosinase [1]
  IC50: 7.2 µM

## O=C(C=Cc1ccc(O)cc1)C=Cc1cc(Br)c(O)c(Br)c1 [Compound 4e, 1-(3,5-Dibromo-4-hydroxyphenyl)-5-(4-hydroxyphenyl)penta-1,4-dien-3-one]
other
  melting point: 110 to 113 °C
Mushroom tyrosinase [1]
  IC50: > 200 µM
